Results taken from ChEMBL document CHEMBL3046352, “Synthesis, anti-HSV-1, and cytotoxic activities of some new pyrazole- and isoxazole-based heterocycles” (Med Chem Res, 2011).
In brackets after ≈: the same amount, converted by molar mass. Activity calls are given as the source filed them. The calls are words filed in the database; no cut-off is given here.

Columns and labels:
[1] = Cytotoxicity against Chlorocebus aethiops (African green monkey) Vero cells assessed as concentration required for 50% loss of monolayer around viral plaque after 66 hr; type: cell-based; conditions: chlorocebus sabaeus, read-out: Activity
Human alphaherpesvirus 1 [2] = assay: Antiviral activity against Human herpesvirus 1 infected Vero cells after 66 hr; type: functional
Human alphaherpesvirus 1 [3] = assay: Antiviral activity against Human herpesvirus 1 infected Vero cells assessed as reduction in viral plaque after 66 hr relative to control; type: functional; design: concentration or dose not given beside the values

SMILES | CC50 at 66 h [1] [µg/mL] | MAC (Human alphaherpesvirus 1 [2]) [mg/mL] | Activity (Human alphaherpesvirus 1 [3])
CC(=N/NC(=O)c1cc(-c2ccc(Cl)cc2)n(-c2ccccc2)n1)/C(Cl)=N\Nc1ccc(F)cc1 | 20 (≈ 39.3 µM) | 0.1 | 69%
Clc1ccc(-c2cc(-c3nnc(Nc4ccccc4)s3)no2)cc1 | 20 (≈ 56.4 µM) | – | inactive
CC(=N/NC(=O)c1cc(-c2ccc(Cl)cc2)on1)/C(Cl)=N\Nc1ccc(F)cc1 | 20 (≈ 46.1 µM) | 0.1 | 51%
O=C(N/N=C1/S/C(=C\c2ccc(F)cc2)C(=O)N1c1ccccc1)c1cc(-c2ccc(Cl)cc2)n(-c2ccccc2)n1 | 30 (≈ 50.5 µM) | – | inactive
O=C(N/N=C/c1ccc(F)cc1)c1cc(-c2ccc(Cl)cc2)n(-c2ccccc2)n1 | 20 (≈ 47.7 µM) | 0.1 | 67%
NNC(=O)c1cc(-c2ccc(Cl)cc2)n(-c2ccccc2)n1 | 20 (≈ 63.9 µM) | 0.1 | 65%
CC1=NN(C(=O)c2cc(-c3ccc(Cl)cc3)n(-c3ccccc3)n2)C(=O)/C1=N/Nc1ccc(F)cc1 | 20 (≈ 39.9 µM) | – | inactive
CC1=NN(C(=O)c2cc(-c3ccc(Cl)cc3)on2)C(=O)/C1=N/Nc1ccc(F)cc1 | 20 (≈ 47 µM) | – | inactive
O=C(NNC(=S)Nc1ccccc1)c1cc(-c2ccc(Cl)cc2)on1 | 20 (≈ 53.6 µM) | 0.1 | 19%
O=C(N/N=c1\scc(-c2ccc(Cl)cc2)n1-c1ccccc1)c1cc(-c2ccc(Cl)cc2)n(-c2ccccc2)n1 | 20 (≈ 34.3 µM) | – | inactive
O=C(NN1C(=O)c2ccccc2C1=O)c1cc(-c2ccc(Cl)cc2)on1 | 10 (≈ 27.2 µM) | 0.1 | inactive
C[C@@]1(CO)[C@H](O)CC[C@@]2(C)[C@H]1CC[C@H]1C[C@@H]3C[C@@]12CC[C@]3(O)CO [APHIDICOLIN] | 10 (≈ 29.5 µM) | 0.005 | 100%
O=C(N/N=C1/S/C(=C\c2ccc(F)cc2)C(=O)N1c1ccccc1)c1cc(-c2ccc(Cl)cc2)on1 | 20 (≈ 38.5 µM) | – | inactive
O=C(N/N=C/c1ccc(F)cc1)c1cc(-c2ccc(Cl)cc2)on1 | 10 (≈ 29.1 µM) | – | 56%
O=C(NNC(=S)Nc1ccccc1)c1cc(-c2ccc(Cl)cc2)n(-c2ccccc2)n1 | 20 (≈ 44.6 µM) | – | inactive
Clc1ccc(-c2cc(-c3nnc(Nc4ccccc4)s3)nn2-c2ccccc2)cc1 | 30 (≈ 69.8 µM) | – | inactive
O=C(N/N=c1\scc(-c2ccc(Cl)cc2)n1-c1ccccc1)c1cc(-c2ccc(Cl)cc2)on1 | 20 (≈ 39.4 µM) | – | inactive
NNC(=O)c1cc(-c2ccc(Cl)cc2)on1 | 10 (≈ 42.1 µM) | 0.1 | 43%
